Test [1] deals with T1, Tyrosine-protein phosphatase non-receptor type 1 (Homo sapiens) (UniProt P18031).
T1 sequence (whole entry): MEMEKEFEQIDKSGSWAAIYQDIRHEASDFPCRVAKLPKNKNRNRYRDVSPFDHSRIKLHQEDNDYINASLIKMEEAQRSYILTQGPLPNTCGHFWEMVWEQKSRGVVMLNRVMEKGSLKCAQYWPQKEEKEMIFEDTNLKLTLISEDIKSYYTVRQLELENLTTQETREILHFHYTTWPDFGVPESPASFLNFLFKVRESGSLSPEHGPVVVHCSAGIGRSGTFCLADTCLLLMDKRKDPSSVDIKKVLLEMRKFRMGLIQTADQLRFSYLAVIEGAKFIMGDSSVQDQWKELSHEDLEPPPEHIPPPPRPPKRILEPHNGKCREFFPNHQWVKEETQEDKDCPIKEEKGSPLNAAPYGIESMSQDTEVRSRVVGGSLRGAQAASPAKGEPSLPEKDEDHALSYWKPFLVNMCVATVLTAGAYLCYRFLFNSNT
As to the kind of experiment: (§1) Inhibition of human recombinant PTP1B using p-nitrophenyl phosphate as substrate after 30 mins by spectrophotometric analysis.

The target in test [2] is T2, Tyrosine-protein phosphatase non-receptor type 1 (Homo sapiens, UniProt P18031).
T2 sequence (P18031 whole entry): T1 sequence (whole entry)
The description is as §1.

Test [3] addresses T1, Tyrosine-protein phosphatase non-receptor type 1 (Homo sapiens). As to the kind of experiment: Noncompetitive inhibition of human recombinant PTP1B using p-nitrophenyl phosphate as substrate at 5.57 to 14.87 uM after 30 mins by Lineweaver-Burk plot analysis.

Activity calls are given as the source filed them. The calls are words filed in the database; no cut-off is given here.

The term IC50 denotes the concentration that inhibits the measured activity by half.

As for `C=CC(C)(O)C/C=C/[C@@]1(C)CC[C@@H](C(C)(O)CC(=O)C=C(C)C)O1` (relative stereo), the inhibition entry in test [1] was “Dose-dependent effect”. Further, in test [2], the half-inhibitory concentration (IC50) amounted to 13.9 µM. Further, in test [3], the inhibition result was “Active”.

The values are drawn from ChEMBL document CHEMBL2203004, “New diterpene furanoids from the Antarctic lichen Huea sp” (Bioorg Med Chem Lett, 2012).
